The supplement of paper PMC7214452

Legend:
Assay in all cases: normalized area under the dose-response curve (viability relative to DMSO control) (fraction); higher = less sensitive (more viable cells)
Settings in all cases: exposure time not given
[1] = system: OCI-MY5/CRBN (cancer type: MM)
Method: (§1)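 25 myeloma and 15 non-Hodgkin lymphoma cell lines were exposed to each of 76 drugs as 7-point log dilutions (0.01 nM–10 µM) in duplicate. Viability was read with CellTiter-Glo and normalised to DMSO (0.1%) and staurosporine (10 µM) plate controls. Normalised AUC was calculated by the trapezoidal method relative to the negative control.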

[2] = system: U266 (cancer type: MM)
Method: as §1

[3] = system: Mino (cancer type: Mantle)
Method: as §1

[4] = system: OCI-MY5/Vec (cancer type: MM)
Method: as §1

[5] = system: RPMI 8226 (cancer type: MM)
Method: as §1

[6] = system: Granta-519 (cancer type: Mantle)
Method: as §1

[7] = system: KMS18 (cancer type: MM)
Method: as §1

[8] = system: OCI-LY3 (cancer type: DLBCL)
Method: as §1

[9] = system: SKMM2 (cancer type: MM)
Method: as §1

[10] = system: NCI-H929 (cancer type: MM)
Method: as §1

[11] = system: Se-Ax (cancer type: TCL)
Method: as §1

[12] = system: KMS26 (cancer type: MM)
Method: as §1

[13] = system: FR4 (cancer type: MM)
Method: as §1

[14] = system: OCI-MY7 (cancer type: MM)
Method: as §1

[15] = system: OCI-LY1 (cancer type: DLBCL)
Method: as §1

[16] = system: My-La (cancer type: TCL)
Method: as §1

[17] = system: SU-DHL6 (cancer type: DLBCL)
Method: as §1

[18] = system: MM1.S (cancer type: MM)
Method: as §1

[19] = system: SR-786 (cancer type: TCL)
Method: as §1

[20] = system: SU-DHL1 (cancer type: TCL)
Method: as §1

[21] = system: AMO1 (cancer type: MM)
Method: as §1

[22] = system: KMS28BM (cancer type: MM)
Method: as §1

[23] = system: KMS34 (cancer type: MM)
Method: as §1

[24] = system: SU-DHL2 (cancer type: DLBCL)
Method: as §1

[25] = system: L363 (cancer type: MM)
Method: as §1

[26] = system: Karpas-299 (cancer type: TCL)
Method: as §1

[27] = system: MM1.R (cancer type: MM)
Method: as §1

[28] = system: EJM (cancer type: MM)
Method: as §1

[29] = system: JeKo-1 (cancer type: Mantle)
Method: as §1

[30] = system: JJN3 (cancer type: MM)
Method: as §1

[31] = system: LP1 (cancer type: MM)
Method: as §1

[32] = system: KMS11 (cancer type: MM)
Method: as §1

[33] = system: KMS28PE (cancer type: MM)
Method: as §1

[34] = system: OCI-LY19 (cancer type: DLBCL)
Method: as §1

[35] = system: HuT 78 (cancer type: TCL)
Method: as §1

[36] = system: OPM2 (cancer type: MM)
Method: as §1

[37] = system: XG2 (cancer type: MM)
Method: as §1

[38] = system: KMS12PE (cancer type: MM)
Method: as §1

[39] = system: OCI-MY5 (cancer type: MM)
Method: as §1

[40] = system: JVM2 (cancer type: Mantle)
Method: as §1

Compound	normalized area under the dose-response curve [1]	normalized area under the dose-response curve [2]	normalized area under the dose-response curve [3]	normalized area under the dose-response curve [4]	normalized area under the dose-response curve [5]	normalized area under the dose-response curve [6]	normalized area under the dose-response curve [7]	normalized area under the dose-response curve [8]	normalized area under the dose-response curve [9]	normalized area under the dose-response curve [10]	normalized area under the dose-response curve [11]	normalized area under the dose-response curve [12]	normalized area under the dose-response curve [13]	normalized area under the dose-response curve [14]	normalized area under the dose-response curve [15]	normalized area under the dose-response curve [16]	normalized area under the dose-response curve [17]	normalized area under the dose-response curve [18]	normalized area under the dose-response curve [19]	normalized area under the dose-response curve [20]	normalized area under the dose-response curve [21]	normalized area under the dose-response curve [22]	normalized area under the dose-response curve [23]	normalized area under the dose-response curve [24]	normalized area under the dose-response curve [25]	normalized area under the dose-response curve [26]	normalized area under the dose-response curve [27]	normalized area under the dose-response curve [28]	normalized area under the dose-response curve [29]	normalized area under the dose-response curve [30]	normalized area under the dose-response curve [31]	normalized area under the dose-response curve [32]	normalized area under the dose-response curve [33]	normalized area under the dose-response curve [34]	normalized area under the dose-response curve [35]	normalized area under the dose-response curve [36]	normalized area under the dose-response curve [37]	normalized area under the dose-response curve [38]	normalized area under the dose-response curve [39]	normalized area under the dose-response curve [40]
CN(C)C/C=C/C(=O)Nc1cc2c(Nc3ccc(F)c(Cl)c3)ncnc2cc1O[C@H]1CCOC1 [Afatinib]	0.548	0.801	0.643	0.477	0.467	0.69	0.822	0.819	0.642	0.63	0.604	0.848	0.685	0.62	0.796	0.74	0.811	0.5	0.709	0.558	0.562	0.682	0.461	0.758	0.521	0.636	0.49	0.66	0.531	0.57	0.637	0.53	0.529	0.739	0.496	0.692	0.496	0.53	0.372	0.497
Cn1ncc(Cl)c1-c1cc(C(=O)N[C@H](CN)Cc2cccc(F)c2)sc1Cl [Afuresertib]	0.742	0.525	0.813	0.637	0.331	0.821	0.293	0.851	0.49	0.33	0.416	0.499	0.591	0.7	0.657	0.784	0.816	0.26	0.713	0.48	0.414	0.363	0.211	0.913	0.375	0.765	0.2	0.486	0.808	0.55	0.384	0.439	0.282	0.739	0.758	0.369	0.436	0.49	0.398	0.652
COc1cc(Nc2ncc3c(n2)-c2ccc(Cl)cc2C(c2c(F)cccc2OC)=NC3)ccc1C(=O)O [Alisertib]	0.85	0.859	0.622	0.809	0.927	0.709	0.833	0.878	0.967	0.94	0.73	0.887	0.916	0.92	0.794	0.851	0.946	0.85	0.802	0.761	0.7	0.913	0.684	0.964	0.872	0.816	0.85	0.889	0.716	0.919	0.851	0.772	0.918	0.853	0.826	0.957	0.69	0.94	0.881	0.706
CC(=O)OC[C@H]1O[C@@H]([S-])[C@H](OC(C)=O)[C@@H](OC(C)=O)[C@@H]1OC(C)=O.CCP(CC)CC.[Au+] [Auranofin]	0.0579	–	–	0.0417	–	–	–	0.553	–	0.08	0.247	–	–	0.07	0.372	–	0.553	0.09	–	0.139	–	–	–	0.611	–	–	0.05	–	–	–	–	–	–	0.344	0.239	–	–	0.33	–	0.157
Nc1ncn([C@@H]2O[C@H](CO)[C@@H](O)[C@H]2O)c(=O)n1 [Azacitidine]	0.756	0.679	0.807	0.702	0.665	0.778	0.736	0.707	0.767	0.4	0.637	0.757	0.427	0.6	0.508	0.87	0.65	0.6	0.74	0.453	0.496	0.774	0.64	0.673	0.488	0.624	0.65	0.635	0.72	0.645	0.766	0.545	0.678	0.716	0.419	0.535	0.612	0.56	0.564	0.552
O=C1CC[C@H](N2Cc3c(OCc4ccc(CN5CCOCC5)cc4)cccc3C2=O)C(=O)N1 [Iberdomide]	0.913	–	–	0.947	–	–	–	0.983	–	0.86	0.953	–	–	0.94	0.968	–	0.887	0.78	–	0.996	–	–	–	0.921	–	–	0.91	–	–	–	–	–	–	0.809	0.913	–	–	0.93	–	0.917
CC(C)C[C@H](NC(=O)CNC(=O)c1cc(Cl)ccc1Cl)B(O)O [Ixazomib]	0.0319	–	0.14	0.027	–	0.129	–	0.285	–	0.1	0.146	0.157	–	0.12	0.362	0.355	0.855	0.09	0.355	0.186	–	–	0.306	0.453	–	0.403	0.05	–	0.104	–	0.344	–	–	0.303	0.156	–	0.0819	0.45	–	0.114
Cc1[nH]c(/C=C2\C(=O)Nc3ccc(F)cc32)c(C)c1C(=O)NCCN1CCCC1 [Toceranib]	0.884	–	0.898	0.967	–	0.898	–	0.902	–	0.88	0.728	0.906	–	0.86	1.06	0.993	0.894	0.82	0.818	0.561	–	–	0.667	0.959	–	0.757	0.83	–	0.831	–	0.796	–	–	0.894	0.756	–	0.723	0.79	–	0.702
